Data as given in patent US20170298406A1, “SALT OF PHENYLGLYCINE METHYL ESTER” (DSM Sinochem Pharmaceuticals Netherlands B.V., priority 2014, published 2017).
Counter-ions that a name gives are not always drawn.

Assay: Solubility of (PGMH)2SO4 in water as a function of temperature (HPLC of filtered supernatant)
Assay type: physicochemical
Conditions: filtrate by HPLC
Description: In the preparation of (PGMH)2SO4 as described in Example 2 separation of the organic phase at pH=4.2 is done while (PGMH)2SO4 is supersaturated. At some point in time, crystallization may start before the organic layer is separated from the aqueous phase. In order to design a process that will avoid crystallization of (PGMH)2SO4 in the presence of organic solvent, and controlled crystallization after separation of the organic phase, solubility of (PGMH)2SO4 as a function of temperature was investigated. The hemi sulfuric acid salt of D-phenylglycine methyl ester (1 g), obtained as described in Example 2 was mixed with water (2 g) at 20° C. and the solid material dissolved. Additional hemi sulfuric acid salt of D-phenylglycine methyl ester (1 g) was added and the mixture was agitated at 20° C. for 25 minutes. Not all solid was dissolved. An aliquot of approximately 0.5 mL of supernatant was filtered, and in the filtrate the concentration of hemi sulfuric acid salt of D-phenylglycine methyl ester was determined by HPLC. The rest of the mixture was stirred at 3° C. Water (2 mL) was added to allow mixing. […] An aliquot of approximately 0.5 mL of supernatant was filtered and in the filtrate the concentration of hemi sulfuric acid salt of D-phenylglycine methyl ester was determined by HPLC.

## COC(=O)[C@H](N)c1ccccc1 [hemi sulfuric acid salt of D-phenylglycine methyl ester]
T 3 °C, agitated 30 minutes
  Solubility in water: hemi sulfuric acid salt of D-phenylglycine methyl ester (g)/kg of solution: 268 g/kg of solution
T 20 °C, agitated 25 minutes
  Solubility in water: hemi sulfuric acid salt of D-phenylglycine methyl ester (g)/kg of solution: 478 g/kg of solution
